Measurements: ChEMBL document CHEMBL3045991, “Synthesis of new 2(1H)-quinoxalinone derivatives for antimicrobial and antiinflammatory evaluation” (Med Chem Res, 2009)

Assays:
Staphylococcus aureus = test: Antibacterial activity against Staphylococcus aureus at 10 mg/ml by cup-plate technique; format: functional; details: read-out: DIZ
Bacillus subtilis = test: Antibacterial activity against Bacillus subtilis at 10 mg/ml by cup-plate technique; format: functional; details: read-out: DIZ
Escherichia coli = test: Antibacterial activity against Escherichia coli at 10 mg/ml by cup-plate technique; format: functional; details: read-out: DIZ
Rattus norvegicus [1] = test: Anti-inflammatory activity in Rattus norvegicus albino (rat) assessed as reduction of carrageenan-induced paw edema thickness at 0.9 mg/100 g body weight, ip administered 1 hr before carrageenan-challenge measured after 4 hr (reference value: 0.88 +/- 0.03 mm); format: functional
Rattus norvegicus [2] = test: Anti-inflammatory activity in Rattus norvegicus albino (rat) assessed as reduction of carrageenan-induced paw edema thickness at 0.9 mg/100 g body weight, ip administered 1 hr before carrageenan-challenge measured after 1 hr (reference value: 0.77 +/- 0.02 mm); format: functional
Rattus norvegicus [3] = test: Gastrointestinal toxicity in Rattus norvegicus albino (rat) assessed as incidence of gastric ulceration at 0.9 mg/100 g body weight, po qd; format: organism-based, Stomach; details: in vivo
Rattus norvegicus [4] = test: Anti-inflammatory activity in Rattus norvegicus albino (rat) assessed as reduction of carrageenan-induced paw edema thickness at 0.9 mg/100 g body weight, ip administered 1 hr before carrageenan-challenge measured after 2 hr (reference value: 0.88 +/- 0.03 mm); format: functional
Rattus norvegicus [5] = test: Anti-inflammatory activity in Rattus norvegicus albino (rat) assessed as reduction of carrageenan-induced paw edema thickness at 0.9 mg/100 g body weight, ip administered 1 hr before carrageenan-challenge measured after 3 hr (reference value: 0.88 +/- 0.03 mm); format: functional
Rattus norvegicus [6] = test: Gastrointestinal toxicity in Rattus norvegicus albino (rat) assessed as ulcer index at 0.9 mg/100 g body weight, po qd; format: organism-based; details: in vivo

SMILES | zone of inhibition at 10000 µg/mL (Staphylococcus aureus) | zone of inhibition at 10000 µg/mL (Bacillus subtilis) | zone of inhibition at 10000 µg/mL (Escherichia coli) | Activity (Rattus norvegicus [1]) | Activity (Rattus norvegicus [2]) | Activity (Rattus norvegicus [3]) | Activity (Rattus norvegicus [4]) | Activity (Rattus norvegicus [5]) | UI (Rattus norvegicus [6])
O=C1NC2CCCCC2N=C1/C=N/Nc1ccc(F)cc1 (stereo not drawn) | 16 mm | 17 mm | 7 mm | – | – | – | – | – | –
O=C(O)c1cn(C2CC2)c2cc(N3CCNCC3)c(F)cc2c1=O [CIPROFLOXACIN] | 17 mm | 19 mm | 12 mm | – | – | – | – | – | –
O=C1NC2CCCCC2N=C1/C=N/Nc1ccc(Br)cc1 (stereo not drawn) | 13 mm | 11 mm | 8 mm | – | – | – | – | – | –
O=c1[nH]c2ccccc2nc1Cc1nnc(S)o1 | 11 mm | 10 mm | – | 0.52 mm | 0.57 mm | 80% | 0.52 mm | 0.6 mm | 240
COc1ccc2c(c1)c(CC(=O)O)c(C)n2C(=O)c1ccc(Cl)cc1 [INDOMETHACIN] | – | – | – | – | – | 100% | – | – | 500
C=CCNC(=S)NNC(=O)CC1=NC2CCCCC2NC1=O (stereo not drawn) | 12 mm | 11 mm | 9 mm | – | – | – | – | – | –
O=C(Cc1nc2ccccc2[nH]c1=O)Nn1c(-c2ccc(Cl)cc2)csc1=S | – | – | – | 0.45 mm | 0.55 mm | 0% | 0.5 mm | 0.47 mm | 0
O=c1[nH]c2ccccc2nc1Cc1nnc(S)n1-c1ccccc1 | – | – | – | 0.47 mm | 0.55 mm | 0% | 0.55 mm | 0.52 mm | 0
O=C(CC1=NC2CCCCC2NC1=O)NNC(=S)Nc1ccccc1 (stereo not drawn) | 16 mm | 18 mm | 12 mm | – | – | – | – | – | –
O=C(CC1=NC2CCCCC2NC1=O)NN1C(=O)c2ccccc2C1=O (stereo not drawn) | – | – | 6 mm | – | – | – | – | – | –
O=C(Cc1nc2ccccc2[nH]c1=O)NNC(=S)Nc1ccccc1 | 10 mm | 9 mm | 8 mm | – | – | – | – | – | –
Cc1ccc(N/N=C/C2=NC3CCCCC3NC2=O)cc1 (stereo not drawn) | 6 mm | 7 mm | 5 mm | – | – | – | – | – | –
CCn1c(S)nnc1Cc1nc2ccccc2[nH]c1=O | – | – | – | 0.67 mm | 0.5 mm | 0% | 0.5 mm | 0.52 mm | 0
C=CCNC(=S)NNC(=O)Cc1nc2ccccc2[nH]c1=O | 9 mm | 8 mm | 7 mm | – | – | – | – | – | –
Cc1ccc(-c2cc(C(F)(F)F)nn2-c2ccc(S(N)(=O)=O)cc2)cc1 [CELECOXIB] | – | – | – | 0.5 mm | 0.45 mm | 0% | 0.42 mm | 0.45 mm | 0
Cc1ccc(-c2csc(=S)n2NC(=O)Cc2nc3ccccc3[nH]c2=O)cc1 | – | – | – | 0.55 mm | 0.7 mm | 0% | 0.67 mm | 0.6 mm | 0
Nn1c(S)nnc1Cc1nc2ccccc2[nH]c1=O | – | – | – | 0.62 mm | 0.67 mm | 0% | 0.62 mm | 0.6 mm | 0
O=C1NC2CCCCC2N=C1/C=N/Nc1ccc(Cl)cc1 (stereo not drawn) | 16 mm | 15 mm | 6 mm | – | – | – | – | – | –
O=C1NC2CCCCC2N=C1/C=N/Nc1ccccc1 (stereo not drawn) | 6 mm | 8 mm | 4 mm | – | – | – | – | – | –
O=C(Cc1nc2ccccc2[nH]c1=O)Nn1c(-c2ccccc2)csc1=S | – | – | – | 0.52 mm | 0.57 mm | 80% | 0.55 mm | 0.55 mm | 240
